From PubChem BioAssay (NCI)
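Growth conditions: 96-well plates. Treatment: test compound, 48 hours, 5 concentrations. Analysis: linear interpolation between bracketing concentrations; unreached endpoints set to highest concentration. At the GI50, growth is halved. TGI: concentration producing complete growth inhibition.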

Key:
Test in all cases: NCI anticancer screen, dose series, 48 h
[1] = test system: 786-0 renal
[2] = test system: A498 renal
[3] = test system: A549 NSCLC
[4] = test system: ACHN renal
[5] = test system: BT-549 breast
[6] = test system: CAKI-1 renal
[7] = test system: CCRF-CEM leukemia
[8] = test system: COLO 205 colon
[9] = test system: DU-145 prostate
[10] = test system: HCC-2998 colon
[11] = test system: HCT-116 colon
[12] = test system: HCT-15 colon
[13] = test system: HL-60(TB) leukemia
[14] = test system: HOP-62 NSCLC
[15] = test system: HOP-92 NSCLC
[16] = test system: HS 578T breast
[17] = test system: HT29 colon
[18] = test system: IGROV1 ovarian
[19] = test system: K-562 leukemia
[20] = test system: KM12 colon
[21] = test system: M14 melanoma
[22] = test system: MALME-3M melanoma
[23] = test system: MCF7 breast
[24] = test system: MDA-MB-231 breast
[25] = test system: MDA-MB-435
[26] = test system: MOLT-4 leukemia
[27] = test system: NCI-H226 lung
[28] = test system: NCI-H23 lung
[29] = test system: NCI-H460 lung
[30] = test system: NCI/ADR-RES ovarian
[31] = test system: OVCAR-3 ovarian
[32] = test system: OVCAR-4 ovarian
[33] = test system: OVCAR-5 ovarian
[34] = test system: OVCAR-8 ovarian
[35] = test system: PC-3 prostate
[36] = test system: RPMI-8226 leukemia
[37] = test system: RXF 393 renal
[38] = test system: SF-268 CNS
[39] = test system: SF-295 CNS
[40] = test system: SF-539 CNS
[41] = test system: SK-MEL-2 melanoma
[42] = test system: SK-MEL-28 melanoma
[43] = test system: SK-MEL-5 melanoma
[44] = test system: SK-OV-3 ovarian
[45] = test system: SN12C renal
[46] = test system: SNB-19 CNS
[47] = test system: SNB-75 CNS
[48] = test system: SR leukemia
[49] = test system: SW-620 colon
[50] = test system: T-47D breast
[51] = test system: TK-10 renal
[52] = test system: U251 CNS
[53] = test system: UACC-257 melanoma
[54] = test system: UACC-62 melanoma
[55] = test system: UO-31 renal
[56] = test system: EKVX NSCLC
[57] = test system: LOX IMVI melanoma

CN(C)c1ccc2nc3ccc(=N)cc-3sc2c1
GI50 [1]: 11.8 µM
TGI [1]: 28.7 µM
GI50 [2]: 2.02 µM
TGI [2]: 39.5 µM
GI50 [3]: 2.37 µM
TGI [3]: 13.9 µM
GI50 [4]: 5.43 µM
TGI [4]: 39.8 µM
GI50 [5]: 7.74 µM
TGI [5]: 69 µM
GI50 [6]: 4.21 µM
TGI [6]: 19.3 µM
GI50 [7]: 2.15 µM
TGI [7]: > 100 µM
GI50 [8]: 2.73 µM
TGI [8]: 10.3 µM
GI50 [9]: 14.3 µM
TGI [9]: 28.3 µM
GI50 [10]: 8.39 µM
TGI [10]: > 100 µM
GI50 [11]: 2.38 µM
TGI [11]: 12.5 µM
GI50 [12]: 3.07 µM
TGI [12]: 24.4 µM
GI50 [13]: 7.53 µM
TGI [13]: 32.9 µM
GI50 [14]: 6.87 µM
TGI [14]: 51.5 µM
GI50 [15]: 3.79 µM
TGI [15]: 41.6 µM
GI50 [16]: 11.4 µM
TGI [16]: 39.5 µM
GI50 [17]: 21.6 µM
TGI [17]: 63.5 µM
GI50 [18]: 8.59 µM
TGI [18]: 35.9 µM
GI50 [19]: 2.61 µM
TGI [19]: > 100 µM
GI50 [20]: 3.67 µM
TGI [20]: 21.7 µM
GI50 [21]: 3.9 µM
TGI [21]: 14.3 µM
GI50 [22]: 2.26 µM
TGI [22]: 7.67 µM
GI50 [23]: 1.91 µM
TGI [23]: 6.29 µM
GI50 [24]: 1.88 µM
TGI [24]: 11.8 µM
GI50 [25]: 1.75 µM
TGI [25]: 3.63 µM
GI50 [26]: 3.47 µM
TGI [26]: > 100 µM
GI50 [27]: 12.1 µM
TGI [27]: 28.8 µM
GI50 [28]: 3.3 µM
TGI [28]: 49.5 µM
GI50 [29]: 7.06 µM
TGI [29]: > 100 µM
GI50 [30]: 3.11 µM
TGI [30]: 48.3 µM
GI50 [31]: 2.75 µM
TGI [31]: 12 µM
GI50 [32]: 1.04 µM
TGI [32]: 2.47 µM
GI50 [33]: 11 µM
TGI [33]: 29.4 µM
GI50 [34]: 2.14 µM
TGI [34]: 12 µM
GI50 [35]: 1.03 µM
TGI [35]: 14.2 µM
GI50 [36]: 1.21 µM
TGI [36]: 25.7 µM
GI50 [37]: 10.4 µM
TGI [37]: 26.8 µM
GI50 [38]: 4.13 µM
TGI [38]: 20 µM
GI50 [39]: 5.98 µM
TGI [39]: 21.2 µM
GI50 [40]: 2.2 µM
TGI [40]: 5.12 µM
GI50 [41]: 9.24 µM
TGI [41]: 26.8 µM
GI50 [42]: 11.9 µM
TGI [42]: 27.7 µM
GI50 [43]: 1.51 µM
TGI [43]: 5.78 µM
GI50 [44]: 10.6 µM
TGI [44]: 38.7 µM
GI50 [45]: 2.37 µM
TGI [45]: 8.06 µM
GI50 [46]: 2.86 µM
TGI [46]: 21.1 µM
GI50 [47]: 3.29 µM
TGI [47]: 15.4 µM
GI50 [48]: 6.86 µM
TGI [48]: > 100 µM
GI50 [49]: 2.83 µM
TGI [49]: 12.9 µM
GI50 [50]: 3.63 µM
TGI [50]: 21.3 µM
GI50 [51]: 7.76 µM
TGI [51]: 31.4 µM
GI50 [52]: 2.71 µM
TGI [52]: 10.5 µM
GI50 [53]: 2.6 µM
TGI [53]: 9.71 µM
GI50 [54]: 2.66 µM
TGI [54]: 8.19 µM
GI50 [55]: 11.6 µM
TGI [55]: 31.2 µM

CCN(CC)c1ccc(N=O)cc1
GI50 [1]: 7.46 µM
TGI [1]: 23.6 µM
GI50 [2]: 13.6 µM
TGI [2]: 38.5 µM
GI50 [3]: 2.07 µM
TGI [3]: 5.56 µM
GI50 [4]: 2.61 µM
TGI [4]: 11.1 µM
GI50 [5]: 16.6 µM
TGI [5]: 30.5 µM
GI50 [6]: 1.29 µM
TGI [6]: 3.83 µM
GI50 [7]: 0.937 µM
TGI [7]: 13 µM
GI50 [8]: 1.98 µM
TGI [8]: 5.46 µM
GI50 [9]: 6.43 µM
TGI [9]: 19.9 µM
GI50 [56]: 10.2 µM
TGI [56]: 26.8 µM
GI50 [11]: 1.82 µM
TGI [11]: 4.71 µM
GI50 [12]: 2.26 µM
TGI [12]: 12.8 µM
GI50 [13]: 2.85 µM
TGI [13]: 13.6 µM
GI50 [14]: 2.78 µM
TGI [14]: 11.8 µM
GI50 [15]: 2.18 µM
TGI [15]: 7.73 µM
GI50 [16]: 10.2 µM
TGI [16]: > 100 µM
GI50 [17]: 1.27 µM
TGI [17]: 4.3 µM
GI50 [18]: 2.05 µM
TGI [18]: 6.41 µM
GI50 [19]: 2.23 µM
TGI [19]: 15.9 µM
GI50 [20]: 3.39 µM
TGI [20]: 13.1 µM
GI50 [57]: 1.67 µM
TGI [57]: 3.53 µM
GI50 [21]: 3.47 µM
TGI [21]: 14.4 µM
GI50 [22]: 1.59 µM
TGI [22]: 4.46 µM
GI50 [23]: 2.76 µM
TGI [23]: 11.8 µM
GI50 [24]: 5.29 µM
TGI [24]: 20.9 µM
GI50 [25]: 2.72 µM
TGI [25]: 11.9 µM
GI50 [26]: 3.34 µM
TGI [26]: 30.1 µM
GI50 [27]: 13.6 µM
TGI [27]: 38.4 µM
GI50 [28]: 1.95 µM
TGI [28]: 5.32 µM
GI50 [29]: 5.12 µM
TGI [29]: 34.2 µM
GI50 [30]: 2.33 µM
TGI [30]: 7 µM
GI50 [31]: 1.97 µM
TGI [31]: 4.61 µM
GI50 [32]: 3.26 µM
TGI [32]: 13.5 µM
GI50 [33]: 3.51 µM
TGI [33]: 14.3 µM
GI50 [34]: 3.14 µM
TGI [34]: 12.3 µM
GI50 [35]: 3.14 µM
TGI [35]: 12.1 µM
GI50 [36]: 2.09 µM
TGI [36]: 6.33 µM
GI50 [37]: 2.46 µM
TGI [37]: 7.45 µM
GI50 [38]: 5.53 µM
TGI [38]: 20.9 µM
GI50 [39]: 4.87 µM
TGI [39]: 20.5 µM
GI50 [40]: 2.96 µM
TGI [40]: 10.1 µM
GI50 [41]: 8.39 µM
TGI [41]: 22 µM
GI50 [42]: 10.7 µM
TGI [42]: 23 µM
GI50 [43]: 2.47 µM
TGI [43]: 7.38 µM
GI50 [44]: 12.4 µM
TGI [44]: 29.3 µM
GI50 [45]: 4.24 µM
TGI [45]: 17.2 µM
GI50 [46]: 12.8 µM
TGI [46]: 29.9 µM
GI50 [47]: 3.47 µM
TGI [47]: 16.9 µM
GI50 [48]: 3.74 µM
TGI [48]: 46.2 µM
GI50 [49]: 1.71 µM
TGI [49]: 5.53 µM
GI50 [50]: 2.89 µM
TGI [50]: 16.7 µM
GI50 [51]: 2.79 µM
TGI [51]: 10.8 µM
GI50 [52]: 1.14 µM
TGI [52]: 2.73 µM
GI50 [53]: 1.82 µM
TGI [53]: 4.15 µM
GI50 [54]: 6.66 µM
TGI [54]: 23.5 µM
GI50 [55]: 1.21 µM
TGI [55]: 3.81 µM
